In US20240148917A1, “PNA PROBES FOR PRETARGETED IMAGING AND THERAPY” (Zytox Therapeutics AB, priority 2020, published 2024):
Several values for one entry are separate records, joined by “and”; a condition that tells them apart may be missing. Equal entries are not always repeated. {DOTA-AEEA-S-S} = N-terminal DOTA chelator joined through an AEEA linker and two serines; {EEY-NH2} = C-terminal Glu-Glu-Tyr amide

How the values were obtained:
SKOV3 xenografts = test: Estimated dosimetry: areas under time-activity plots for kidney and tumor; format: in vivo, BALB/c nu/nu mice; conditions: non-decay corrected data, 4 and 144 h, pretargeted
Description: To estimate a ratio of absorbed doses in tumor and kidneys, cumulated activity in kidney and tumor were assessed. The estimation was based on a clinically validated two time point approach (Freedman 2020). The biodistribution data were non-decay corrected and areas under time-activity plot was calculated using GraphPad Prism software. The assumptions were that the main absorbed dose will be due to beta-particles, as cross-doses would be negligible, and the absorbed fraction would be equal to 1.

ZHER2:342-SR-HP15 = test: SPR hybridization of complementary PNA probes to immobilized ZHER2:342-SR-HP15; format: binding; conditions: for kd: dissociation 10 000 s; for affinity to ZHER2:342-SR-HP15 relative to HP16: SPR, kd too slow to determine
Description: The kinetic parameters for hybridization of the PNA probes were analyzed using surface plasmon resonance (SPR) on a Biacore™ 8K instrument (GE Healthcare). Dextran chips Series S Sensor CM5 (GE Healthcare), were functionalized with ZHER2:342-SR-HP15 on four surfaces to 385, 194, 185 and 353 resonance units (RU) using standard amine coupling procedures. A reference surface on each chip was subjected to activation followed by deactivation. The complementary PNA probes HP16, HP17, HP18 and HP19 were injected at 5 concentrations; 22.6, 45.3, 90.6, 181.25 and 362.5 nM using a single cycle injection. Association for each concentration was allowed for 300 s, followed by the next injection and association phase. After injection of the final concentration, dissociation was allowed for 10 000 s (2 h 47 min) before regeneration with 10 mM HCl for 30 s followed by 15 mM NaOH for 30 s. All runs were performed in PBST (0.05% Tween-20) pH 7.4 using a flow rate of […] at 25° C. Kinetic parameters were calculated using 1:1 binding model in Biacore Insight Evaluation software.

HP15 = test: Melting temperature of PNA hybridization complexes with HP15 (UV absorbance at 260 nm); format: physicochemical; conditions: duplex with HP15, monitored at 260 nm
Description: Melting temperatures for HP15:HP16, HP15:HP17 and HP15:HP18 were determined by monitoring UV absorbance at 260 nm (Chirascan™, Applied Photophysics) at a temperature range from 20 to 95° C., using a temperature change of 1° C./min. The PNA complexes were heated to 80° C. for 5 min and were then allowed to hybridize at room temperature for 5 min prior to UV monitoring at room temperature for 5 min. CD spectra were collected before and after determination of thermal denaturation. The melting temperature for the HP15:HP19 complex was determined using a Varian Cary 50 Bio UV-visual spectrophotometer equipped with a single-cell Peltier thermostat controlled cuvette holder. The temperature in the cell was adjusted at a speed of 0.5° C./min between 20 to 80° C., and measurements were taken at 260 nm after a 60 s equilibration at each temperature point.

[1] = In vitro stability of 177Lu-labeled probes (EDTA challenge, PBS control); format: physicochemical; conditions: 177Lu-labeled probe, 500-fold molar excess of EDTA
Description: To evaluate stability, a fraction of the freshly radiolabeled conjugate (0.4 μg) was incubated with 500-fold molar excess of EDTA for 60 min at 37° C. Incubation was also performed in PBS as a control. The test was run in triplicates.

[2] = binding to immobilized ZHER2:342-SR-HP15, SPR

Row | Substance | Tumor-to-kidney ratio (areas under time-activity plots) (SKOV3 xenografts) | ka (ZHER2:342-SR-HP15; [2]) | Kd (ZHER2:342-SR-HP15; binding to immobilized ZHER2:342-SR-HP15, SPR, 25° C., 1:1 model) | kd (ZHER2:342-SR-HP15; [2]) | Tm (HP15) | Stability (×500 EDTA), 37° C., 1 h [1] | affinity to ZHER2:342-SR-HP15 relative to HP16 (ZHER2:342-SR-HP15) | Kd (ZHER2:342-SR-HP15; interaction with HP15, SPR)
1 | DOTA-AEEA-S-S-g-a-c-t-a-c-a-t-c-c-a-g-a-c-t-E-E-Y-NH2 (GACTACATCCAGACT; all peptide nucleic acid (PNA), 5' {DOTA-AEEA-S-S}, 3' {EEY-NH2}) [HP2, first-generation secondary PNA probe (Westerlund et al, 2015), reference compound] | 2.0 | – | – | – | – | – | – | –
2 | DOTA-AEEA-S-S-a-a-c-a-c-c-a-g-g-E-E-Y-NH2 (AACACCAGG; chemistry not fully specified) [HP16, secondary probe, 9-mer PNA] | 3.8 | 46000 M⁻¹ s⁻¹ | ~0.28 nM and 0.28 nM | 1.2e-05 s⁻¹ | 73 °C | 100 ± 0 | – | –
3 | DOTA-AEEA-S-S-a-t-c-a-a-c-a-c-c-a-g-g-E-E-Y-NH2 (ATCAACACCAGG; chemistry not fully specified) [HP17, secondary probe, 12-mer PNA] | 2.8 | 43000 M⁻¹ s⁻¹ | – | too slow to be determined | 75 °C | 100 ± 0 | estimated to be higher | –
4 | DOTA-AEEA-S-S-a-t-c-a-t-c-a-a-c-a-c-c-a-g-g-E-E-Y-NH2 (ATCATCAACACCAGG; all peptide nucleic acid (PNA), 5' {DOTA-AEEA-S-S}, 3' {EEY-NH2}) [HP18, secondary probe, 15-mer PNA] | 2.0 | 57000 M⁻¹ s⁻¹ | – | too slow to be determined | 87 °C | 100 ± 0 | estimated to be higher | –
5 | DOTA-AEEA-S-S-a-c-c-a-g-g-E-E-Y-NH2 [HP19] | – | 2.1e+07 M⁻¹ s⁻¹ | – | 0.072 s⁻¹ | 55 °C | – | – | 3.4 nM
